The nature of data set [1]: Detergency solubility of carboxylic acid coatings in KOH based system (Example 1). Format: physicochemical. The conditions noted are these: acidic coating, materials dissolved in DMAC.
Description: (§1) Water solubility is tested and thermal resistance is indicated for each material.
Data set [2] is described as follows: Water solubility of carboxylic acid coatings (Example 1). The conditions noted are these: acidic coating; materials dissolved in n,n-dimethylacetamide (DMAC).
Description: as §1

Take `O=C(O)c1ccc(C(=O)O)cc1` [Terephthalic acid]: in data set [1], the “Detergency (KOH based system)” value is listed as “Partial”.

Regarding `O=C(O)c1ccc(O)cc1` [P-hydroxybenzoic acid], the “Water solubility (observed)” value in data set [2] is listed as “Limited/no”. The “Detergency (KOH based system)” value in data set [1] is “Yes”.

For `O=C(O)c1cccc(C(=O)O)c1` [Isophthalic acid], the “Water solubility (observed)” value in data set [2] is “Limited/no”. In addition, the “Detergency (KOH based system)” value in data set [1] is “Yes”.

On to `O=C(O)/C=C/C(=O)O` [Fumaric Acid], for which the “Water solubility (observed)” value in data set [2] was “Limited/no”. Also, in data set [1], the “Detergency (KOH based system)” value was “Partial”.

On to `O=C(O)c1ccccc1C(=O)O` [Phthalic Acid], for which the “Detergency (KOH based system)” value in data set [1] is “Yes”.

The values above are taken from US9790407B2, “Aqueous detergent soluble coating and adhesive and methods of temporary bonding for manufacturing” (priority 2013, dated 2017).
